# Experimental data from patent US12479895B2, “C-terminal CDNF and MANF fragments, pharmaceutical compositions comprising same and uses thereof” (MyNeuroCure Oy, priority 2018, dated 2025).
# Tests used:
# [1] = tested on: ER stressed SCG neurons; assay: Survival of tunicamycin-treated (ER stressed) SCG sympathetic neurons after microinjection; format: cell-based, mice; details: for survived neurons as % compared to neurons grown in the presence of NGF: microinjected into cytoplasm, CDNF (400); for Fold change of survived neurons compared to neurons injected with PBS: data of Table 1 divided by values of PBS
# In short: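 Newborn mouse SCG neurons grown 5-6 days with 30 ng/ml NGF, then microinjected with CDNF (FL or C-terminal) plasmids (10 ng/ul, EGFP reporter) or proteins (200 ng/ul, Dextran Texas Red). Tunicamycin (2 μM) added next day. Fluorescent survivors counted blindly after 3 days as % of initial; compared with vector or PBS (ANOVA/Dunnett).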
# [2] = tested on: dopamine neurons; assay: Survival of TH-positive dopamine neurons in dissociated midbrain floor cultures; format: cell-based, mouse; details: for Fold change of survived neurons compared to neurons grown without growth factors: data of Table 3 divided by values of no factor
# In short: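 Dissociated E13.5 NMRI mouse midbrain floor neurons grown five days in DMEM/F12 with N2, with polypeptides at a range of concentrations, GDNF (100 ng/ml), or nothing. TH-immunopositive neurons were counted by imaging. Values are a percentage of GDNF-maintained TH-positive neurons, as mean ± SEM from at least three independent cultures.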
# [3] = Table 1A (FIG. 14), AVG of exp1-2, tunicamycin 2 μM
# [4] = Table 1A (FIG. 14), exp1, tunicamycin 2 μM, counted after 3 days
# [5] = Table 1A (FIG. 14), exp2, tunicamycin 2 μM, counted after 3 days
# [6] = Table 3A (FIG. 15), AVG, 1 ng/ml, 5 days
# [7] = Table 3A (FIG. 15), AVG, 10 ng/ml, 5 days
# [8] = Table 3A (FIG. 15), AVG, 100 ng/ml, 5 days
# [9] = Table 3A (FIG. 15), AVG, 1000 ng/ml, 5 days
# [10] = Table 3A (FIG. 15), exp1, 1 ng/ml, 5 days
# [11] = Table 3A (FIG. 15), exp1, 10 ng/ml, 5 days
# [12] = Table 3A (FIG. 15), exp1, 100 ng/ml, 5 days
# [13] = Table 3A (FIG. 15), exp1, 1000 ng/ml, 5 days
# [14] = Table 3A (FIG. 15), exp2, 1 ng/ml, 5 days
# [15] = Table 3A (FIG. 15), exp2, 10 ng/ml, 5 days
# [16] = Table 3A (FIG. 15), exp2, 100 ng/ml, 5 days
# [17] = Table 3A (FIG. 15), exp2, 1000 ng/ml, 5 days
# [18] = Table 3A (FIG. 15), exp3, 1 ng/ml, 5 days
# [19] = Table 3A (FIG. 15), exp3, 10 ng/ml, 5 days
# [20] = Table 3A (FIG. 15), exp3, 100 ng/ml, 5 days
# [21] = Table 3A (FIG. 15), exp3, 1000 ng/ml, 5 days
sequence,measurement,setting,value
VDLRKMRVAELKQILHSWGEECRACAEKTDYVNLIQELAPKYAATHPKTEL (listed as Homo sapiens) [pep5],survived neurons as % compared to neurons grown in the presence of NGF,[1]; [3],81.78 % NGF
same,survived neurons as % compared to neurons grown in the presence of NGF,[1]; [4],86.36 % NGF
same,survived neurons as % compared to neurons grown in the presence of NGF,[1]; [5],77.19 % NGF
same,Fold change of survived neurons compared to neurons injected with PBS,"[1]; Table 2, AVG",2.23 Fold to PBS
same,Fold change of survived neurons compared to neurons injected with PBS,"[1]; Table 2, exp1",2.52 Fold to PBS
same,Fold change of survived neurons compared to neurons injected with PBS,"[1]; Table 2, exp2",1.94 Fold to PBS
same,survived neurons as % compared to neurons grown in the presence of GDNF,[2]; [6],64.92 % GDNF
same,survived neurons as % compared to neurons grown in the presence of GDNF,[2]; [7],76.19 % GDNF
same,survived neurons as % compared to neurons grown in the presence of GDNF,[2]; [8],73.84 % GDNF
same,survived neurons as % compared to neurons grown in the presence of GDNF,[2]; [9],65.13 % GDNF
same,survived neurons as % compared to neurons grown in the presence of GDNF,[2]; [10],65.24 % GDNF
same,survived neurons as % compared to neurons grown in the presence of GDNF,[2]; [11],61.71 % GDNF
same,survived neurons as % compared to neurons grown in the presence of GDNF,[2]; [12],59.82 % GDNF
same,survived neurons as % compared to neurons grown in the presence of GDNF,[2]; [13],59.11 % GDNF
same,survived neurons as % compared to neurons grown in the presence of GDNF,[2]; [14],59.23 % GDNF
same,survived neurons as % compared to neurons grown in the presence of GDNF,[2]; [15],82.61 % GDNF
same,survived neurons as % compared to neurons grown in the presence of GDNF,[2]; [16],75.53 % GDNF
same,survived neurons as % compared to neurons grown in the presence of GDNF,[2]; [17],58.84 % GDNF
same,survived neurons as % compared to neurons grown in the presence of GDNF,[2]; [18],70.31 % GDNF
same,survived neurons as % compared to neurons grown in the presence of GDNF,[2]; [19],84.24 % GDNF
same,survived neurons as % compared to neurons grown in the presence of GDNF,[2]; [20],86.17 % GDNF
same,survived neurons as % compared to neurons grown in the presence of GDNF,[2]; [21],77.44 % GDNF
same,Fold change of survived neurons compared to neurons grown without growth factors,"[2]; Table 4, AVG, 1 ng/ml",1.06 fold
same,Fold change of survived neurons compared to neurons grown without growth factors,"[2]; Table 4, AVG, 10 ng/ml",1.23 fold
same,Fold change of survived neurons compared to neurons grown without growth factors,"[2]; Table 4, AVG, 100 ng/ml",1.19 fold
same,Fold change of survived neurons compared to neurons grown without growth factors,"[2]; Table 4, AVG, 1000 ng/ml",1.05 fold
same,Fold change of survived neurons compared to neurons grown without growth factors,"[2]; Table 4, exp1, 1 ng/ml",1.14 fold
same,Fold change of survived neurons compared to neurons grown without growth factors,"[2]; Table 4, exp1, 10 ng/ml",1.08 fold
same,Fold change of survived neurons compared to neurons grown without growth factors,"[2]; Table 4, exp1, 100 ng/ml",1.05 fold
same,Fold change of survived neurons compared to neurons grown without growth factors,"[2]; Table 4, exp1, 1000 ng/ml",1.03 fold
same,Fold change of survived neurons compared to neurons grown without growth factors,"[2]; Table 4, exp2, 1 ng/ml",0.94 fold
same,Fold change of survived neurons compared to neurons grown without growth factors,"[2]; Table 4, exp2, 10 ng/ml",1.31 fold
same,Fold change of survived neurons compared to neurons grown without growth factors,"[2]; Table 4, exp2, 100 ng/ml",1.20 fold
same,Fold change of survived neurons compared to neurons grown without growth factors,"[2]; Table 4, exp2, 1000 ng/ml",0.93 fold
same,Fold change of survived neurons compared to neurons grown without growth factors,"[2]; Table 4, exp3, 1 ng/ml",1.09 fold
same,Fold change of survived neurons compared to neurons grown without growth factors,"[2]; Table 4, exp3, 10 ng/ml",1.30 fold
same,Fold change of survived neurons compared to neurons grown without growth factors,"[2]; Table 4, exp3, 100 ng/ml",1.33 fold
same,Fold change of survived neurons compared to neurons grown without growth factors,"[2]; Table 4, exp3, 1000 ng/ml",1.20 fold
VDLRKMRVAELKQILHSWGEECRACAEKTDYVNLIQELAPKYA (listed as Homo sapiens) [pep6],survived neurons as % compared to neurons grown in the presence of NGF,[1]; [3],78.47 % NGF
same,survived neurons as % compared to neurons grown in the presence of NGF,[1]; [4],81.94 % NGF
same,survived neurons as % compared to neurons grown in the presence of NGF,[1]; [5],75.00 % NGF
same,Fold change of survived neurons compared to neurons injected with PBS,"[1]; Table 2, AVG",2.14 Fold to PBS
same,Fold change of survived neurons compared to neurons injected with PBS,"[1]; Table 2, exp1",2.39 Fold to PBS
same,Fold change of survived neurons compared to neurons injected with PBS,"[1]; Table 2, exp2",1.89 Fold to PBS
same,survived neurons as % compared to neurons grown in the presence of GDNF,[2]; [6],65.97 % GDNF
same,survived neurons as % compared to neurons grown in the presence of GDNF,[2]; [7],75.95 % GDNF
same,survived neurons as % compared to neurons grown in the presence of GDNF,[2]; [8],73.52 % GDNF
same,survived neurons as % compared to neurons grown in the presence of GDNF,[2]; [9],70.75 % GDNF
same,survived neurons as % compared to neurons grown in the presence of GDNF,[2]; [10],62.89 % GDNF
same,survived neurons as % compared to neurons grown in the presence of GDNF,[2]; [11],66.29 % GDNF
same,survived neurons as % compared to neurons grown in the presence of GDNF,[2]; [12],71.71 % GDNF
same,survived neurons as % compared to neurons grown in the presence of GDNF,[2]; [13],63.01 % GDNF
same,survived neurons as % compared to neurons grown in the presence of GDNF,[2]; [14],77.34 % GDNF
same,survived neurons as % compared to neurons grown in the presence of GDNF,[2]; [15],83.75 % GDNF
same,survived neurons as % compared to neurons grown in the presence of GDNF,[2]; [16],71.86 % GDNF
same,survived neurons as % compared to neurons grown in the presence of GDNF,[2]; [17],67.06 % GDNF
same,survived neurons as % compared to neurons grown in the presence of GDNF,[2]; [18],57.68 % GDNF
same,survived neurons as % compared to neurons grown in the presence of GDNF,[2]; [19],77.81 % GDNF
same,survived neurons as % compared to neurons grown in the presence of GDNF,[2]; [20],76.97 % GDNF
same,survived neurons as % compared to neurons grown in the presence of GDNF,[2]; [21],82.17 % GDNF
same,Fold change of survived neurons compared to neurons grown without growth factors,"[2]; Table 4, AVG, 1 ng/ml",1.07 fold
same,Fold change of survived neurons compared to neurons grown without growth factors,"[2]; Table 4, AVG, 10 ng/ml",1.23 fold
same,Fold change of survived neurons compared to neurons grown without growth factors,"[2]; Table 4, AVG, 100 ng/ml",1.19 fold
same,Fold change of survived neurons compared to neurons grown without growth factors,"[2]; Table 4, AVG, 1000 ng/ml",1.15 fold
same,Fold change of survived neurons compared to neurons grown without growth factors,"[2]; Table 4, exp1, 1 ng/ml",1.10 fold
same,Fold change of survived neurons compared to neurons grown without growth factors,"[2]; Table 4, exp1, 10 ng/ml",1.16 fold
same,Fold change of survived neurons compared to neurons grown without growth factors,"[2]; Table 4, exp1, 100 ng/ml",1.25 fold
same,Fold change of survived neurons compared to neurons grown without growth factors,"[2]; Table 4, exp1, 1000 ng/ml",1.10 fold
same,Fold change of survived neurons compared to neurons grown without growth factors,"[2]; Table 4, exp2, 1 ng/ml",1.23 fold
same,Fold change of survived neurons compared to neurons grown without growth factors,"[2]; Table 4, exp2, 10 ng/ml",1.33 fold
same,Fold change of survived neurons compared to neurons grown without growth factors,"[2]; Table 4, exp2, 100 ng/ml",1.14 fold
same,Fold change of survived neurons compared to neurons grown without growth factors,"[2]; Table 4, exp2, 1000 ng/ml",1.06 fold
same,Fold change of survived neurons compared to neurons grown without growth factors,"[2]; Table 4, exp3, 1 ng/ml",0.89 fold
same,Fold change of survived neurons compared to neurons grown without growth factors,"[2]; Table 4, exp3, 10 ng/ml",1.20 fold
same,Fold change of survived neurons compared to neurons grown without growth factors,"[2]; Table 4, exp3, 100 ng/ml",1.19 fold
same,Fold change of survived neurons compared to neurons grown without growth factors,"[2]; Table 4, exp3, 1000 ng/ml",1.27 fold
RVAELKQILHSWGEECRACAEKTDYVNLIQELAPKYA (listed as Homo sapiens) [pep8],survived neurons as % compared to neurons grown in the presence of NGF,"[1]; Table 1B (FIG. 16), exp1, tunicamycin 2 μM, counted after 3 days",77.94 % NGF
same,survived neurons as % compared to neurons grown in the presence of NGF,"[1]; Table 1B (FIG. 16), exp2, tunicamycin 2 μM, counted after 3 days",65.57 % NGF
same,survived neurons as % compared to neurons grown in the presence of NGF,"[1]; Table 1B (FIG. 16), exp3, tunicamycin 2 μM, counted after 3 days",73.91 % NGF
same,rescue of ER stressed SCG neurons (result in words),"[1]; protein or peptide microinjected into the cytoplasm, tunicamycin 2 μM, living fluorescent neurons counted after 3 days",rescue
same,survived neurons as % compared to neurons grown in the presence of GDNF,"[2]; Table 3B (FIG. 17), AVG, 1 ng/ml, 5 days",64.02 % GDNF
same,survived neurons as % compared to neurons grown in the presence of GDNF,"[2]; Table 3B (FIG. 17), AVG, 10 ng/ml, 5 days",75.69 % GDNF
same,survived neurons as % compared to neurons grown in the presence of GDNF,"[2]; Table 3B (FIG. 17), AVG, 100 ng/ml, 5 days",85.95 % GDNF
same,survived neurons as % compared to neurons grown in the presence of GDNF,"[2]; Table 3B (FIG. 17), AVG, 1000 ng/ml, 5 days",81.43 % GDNF
same,protection of dopaminergic neurons in culture (result in words),"[2]; added to the culture medium, 5 days, TH-positive neurons counted",best protective effect
